Reference: the NIST ThermoML archive (doi:10.1021/je800579j)
± gives the expanded uncertainty stated by the source.

Assay: xn = mol fraction of the nth substance listed
Conditions: Liquid, Pycnometric method

C1COCCO1 [1,4-dioxane] + Cc1ccccc1
mass density [kg/m3]
Conditions	288.15 K	293.15 K	298.15 K	303.15 K	308.15 K	313.15 K	318.15 K
x1 = 0.0688	881.09 ± 0.74	876.32 ± 0.72	871.54 ± 0.73	866.76 ± 0.73	861.99 ± 0.74	857.21 ± 0.74	852.43 ± 0.74
x1 = 0.1373	890.67 ± 0.75	885.84 ± 0.73	881 ± 0.74	876.16 ± 0.74	871.33 ± 0.75	866.49 ± 0.75	861.65 ± 0.75
x1 = 0.2112	901.34 ± 0.76	896.45 ± 0.74	891.55 ± 0.75	886.65 ± 0.75	881.75 ± 0.76	876.85 ± 0.76	871.95 ± 0.75
x1 = 0.2858	912.47 ± 0.78	907.51 ± 0.75	902.55 ± 0.76	897.58 ± 0.76	892.62 ± 0.77	887.66 ± 0.77	882.7 ± 0.77
x1 = 0.3552	923.15 ± 0.79	918.13 ± 0.76	913.11 ± 0.77	908.08 ± 0.78	903.06 ± 0.78	898.04 ± 0.79	893.02 ± 0.78
x1 = 0.4361	936.02 ± 0.8	930.92 ± 0.78	925.82 ± 0.78	920.72 ± 0.79	915.63 ± 0.79	910.54 ± 0.8	905.45 ± 0.79
x1 = 0.5064	947.57 ± 0.81	942.41 ± 0.79	937.25 ± 0.79	932.09 ± 0.8	926.93 ± 0.8	921.77 ± 0.81	916.61 ± 0.8
x1 = 0.5819	960.38 ± 0.82	955.15 ± 0.8	949.92 ± 0.81	944.69 ± 0.81	939.46 ± 0.82	934.23 ± 0.82	929 ± 0.81
x1 = 0.6506	972.39 ± 0.83	967.1 ± 0.81	961.8 ± 0.82	956.5 ± 0.82	951.21 ± 0.82	945.92 ± 0.83	940.63 ± 0.82
x1 = 0.7212	985.11 ± 0.84	979.74 ± 0.82	974.37 ± 0.83	969.01 ± 0.83	963.65 ± 0.84	958.29 ± 0.84	952.93 ± 0.83
x1 = 0.7903	997.93 ± 0.86	992.49 ± 0.83	987.06 ± 0.84	981.63 ± 0.84	976.2 ± 0.85	970.77 ± 0.85	965.34 ± 0.84
x1 = 0.864	1012.02 ± 0.87	1006.51 ± 0.84	1001 ± 0.85	995.5 ± 0.85	989.99 ± 0.86	984.49 ± 0.86	978.99 ± 0.85
x1 = 0.9336	1025.74 ± 0.88	1020.16 ± 0.86	1014.58 ± 0.86	1009.01 ± 0.86	1003.44 ± 0.87	997.87 ± 0.88	992.3 ± 0.86
x1 = 1	1039.23 ± 0.87	1033.59 ± 0.87	1027.95 ± 0.87	1022.32 ± 0.88	1016.68 ± 0.88	1011.05 ± 0.89	1005.42 ± 0.89

C1COCCO1 [1,4-dioxane] + c1ccccc1
mass density [kg/m3]
Conditions	288.15 K	293.15 K	298.15 K	303.15 K	308.15 K	313.15 K	318.15 K
x1 = 0.0713	895.16 ± 0.81	889.77 ± 0.81	884.38 ± 0.81	878.99 ± 0.82	873.6 ± 0.82	868.22 ± 0.82	862.84 ± 0.83
x1 = 0.1403	905.71 ± 0.82	900.28 ± 0.81	894.85 ± 0.82	889.42 ± 0.82	883.99 ± 0.83	878.58 ± 0.83	873.17 ± 0.83
x1 = 0.2123	916.74 ± 0.83	911.28 ± 0.82	905.82 ± 0.82	900.36 ± 0.83	894.9 ± 0.83	889.45 ± 0.84	884 ± 0.84
x1 = 0.2809	927.28 ± 0.83	921.79 ± 0.83	916.3 ± 0.83	910.81 ± 0.84	905.32 ± 0.84	899.84 ± 0.84	894.36 ± 0.85
x1 = 0.3528	938.34 ± 0.84	932.82 ± 0.83	927.31 ± 0.84	921.8 ± 0.84	916.28 ± 0.85	910.77 ± 0.85	905.26 ± 0.85
x1 = 0.4195	948.63 ± 0.85	943.09 ± 0.84	937.55 ± 0.84	932.01 ± 0.85	926.47 ± 0.85	920.94 ± 0.86	915.41 ± 0.86
x1 = 0.5037	961.65 ± 0.85	956.08 ± 0.85	950.51 ± 0.85	944.94 ± 0.85	939.38 ± 0.86	933.82 ± 0.86	928.26 ± 0.87
x1 = 0.58	973.48 ± 0.86	967.89 ± 0.85	962.3 ± 0.85	956.71 ± 0.86	951.12 ± 0.86	945.54 ± 0.87	939.96 ± 0.87
x1 = 0.6504	984.43 ± 0.86	978.82 ± 0.85	973.21 ± 0.86	967.6 ± 0.86	962 ± 0.87	956.4 ± 0.87	950.8 ± 0.87
x1 = 0.7197	995.23 ± 0.86	989.61 ± 0.86	983.99 ± 0.86	978.37 ± 0.87	972.75 ± 0.87	967.13 ± 0.87	961.52 ± 0.88
x1 = 0.7822	1005 ± 0.87	999.37 ± 0.86	993.74 ± 0.86	988.11 ± 0.87	982.48 ± 0.87	976.85 ± 0.88	971.23 ± 0.88
x1 = 0.8561	1016.58 ± 0.87	1010.94 ± 0.86	1005.3 ± 0.87	999.66 ± 0.87	994.02 ± 0.88	988.39 ± 0.88	982.76 ± 0.88
x1 = 0.9287	1027.99 ± 0.87	1022.35 ± 0.86	1016.71 ± 0.87	1011.07 ± 0.87	1005.43 ± 0.88	999.79 ± 0.88	994.15 ± 0.89
x1 = 1	1039.23 ± 0.87	1033.59 ± 0.87	1027.95 ± 0.87	1022.32 ± 0.88	1016.68 ± 0.88	1011.05 ± 0.89	1005.42 ± 0.89

Cc1cc(C)cc(C)c1 [1,3,5-trimethylbenzene] + C1COCCO1
mass density [kg/m3]
Conditions	288.15 K	293.15 K	298.15 K	303.15 K	308.15 K	313.15 K	318.15 K
x2 = 0	869.28 ± 0.63	865.37 ± 0.63	861.45 ± 0.63	857.54 ± 0.64	853.63 ± 0.65	849.71 ± 0.65	845.8 ± 0.66
x2 = 0.0696	876.28 ± 0.67	872.24 ± 0.64	868.2 ± 0.65	864.16 ± 0.65	860.13 ± 0.66	856.1 ± 0.67	852.07 ± 0.66
x2 = 0.1408	883.83 ± 0.69	879.67 ± 0.66	875.52 ± 0.66	871.37 ± 0.67	867.22 ± 0.68	863.07 ± 0.68	858.92 ± 0.67
x2 = 0.2098	891.62 ± 0.7	887.36 ± 0.67	883.1 ± 0.68	878.84 ± 0.68	874.59 ± 0.69	870.34 ± 0.7	866.09 ± 0.68
x2 = 0.28	900.04 ± 0.72	895.68 ± 0.69	891.32 ± 0.69	886.96 ± 0.7	882.6 ± 0.7	878.25 ± 0.71	873.9 ± 0.69
x2 = 0.3558	909.87 ± 0.74	905.4 ± 0.7	900.93 ± 0.71	896.46 ± 0.71	892 ± 0.72	887.54 ± 0.72	883.08 ± 0.7
x2 = 0.4276	919.97 ± 0.76	915.4 ± 0.72	910.83 ± 0.72	906.26 ± 0.73	901.7 ± 0.73	897.14 ± 0.74	892.58 ± 0.71
x2 = 0.5066	932.03 ± 0.79	927.35 ± 0.73	922.67 ± 0.74	917.99 ± 0.74	913.32 ± 0.75	908.65 ± 0.75	903.98 ± 0.72
x2 = 0.5801	944.34 ± 0.8	939.54 ± 0.75	934.74 ± 0.75	929.94 ± 0.76	925.14 ± 0.77	920.34 ± 0.77	915.54 ± 0.74
x2 = 0.6548	957.96 ± 0.83	953.01 ± 0.77	948.06 ± 0.77	943.12 ± 0.78	938.18 ± 0.78	933.25 ± 0.79	928.32 ± 0.75
x2 = 0.7227	971.44 ± 0.85	966.36 ± 0.79	961.28 ± 0.79	956.21 ± 0.8	951.14 ± 0.8	946.07 ± 0.81	941 ± 0.77
x2 = 0.7936	986.75 ± 0.87	981.51 ± 0.81	976.27 ± 0.81	971.04 ± 0.82	965.81 ± 0.82	960.58 ± 0.83	955.35 ± 0.78
x2 = 0.8663	1003.78 ± 0.9	998.39 ± 0.83	993 ± 0.83	987.61 ± 0.84	982.23 ± 0.84	976.85 ± 0.85	971.47 ± 0.8
x2 = 0.9319	1020.49 ± 0.92	1014.96 ± 0.85	1009.43 ± 0.85	1003.91 ± 0.86	998.39 ± 0.86	992.87 ± 0.87	987.35 ± 0.81

Cc1ccc(C)cc1 [1,4-dimethylbenzene] + C1COCCO1
mass density [kg/m3]
Conditions	288.15 K	293.15 K	298.15 K	303.15 K	308.15 K	313.15 K	318.15 K
x2 = 0	865.52 ± 0.67	861.17 ± 0.67	856.82 ± 0.67	852.47 ± 0.68	848.12 ± 0.68	843.77 ± 0.69	839.42 ± 0.7
x2 = 0.0716	874.09 ± 0.71	869.64 ± 0.68	865.2 ± 0.69	860.76 ± 0.69	856.32 ± 0.7	851.88 ± 0.7	847.44 ± 0.69
x2 = 0.1445	883.22 ± 0.72	878.69 ± 0.7	874.16 ± 0.7	869.64 ± 0.7	865.12 ± 0.71	860.6 ± 0.72	856.08 ± 0.7
x2 = 0.2132	892.23 ± 0.73	887.63 ± 0.71	883.03 ± 0.71	878.43 ± 0.72	873.83 ± 0.72	869.23 ± 0.73	864.63 ± 0.71
x2 = 0.2871	902.41 ± 0.75	897.73 ± 0.72	893.05 ± 0.72	888.37 ± 0.73	883.69 ± 0.73	879.02 ± 0.74	874.35 ± 0.72
x2 = 0.3582	912.76 ± 0.77	908 ± 0.73	903.24 ± 0.74	898.49 ± 0.74	893.74 ± 0.75	888.99 ± 0.75	884.24 ± 0.73
x2 = 0.4358	924.73 ± 0.78	919.88 ± 0.75	915.03 ± 0.75	910.19 ± 0.76	905.35 ± 0.76	900.51 ± 0.77	895.67 ± 0.75
x2 = 0.5042	935.9 ± 0.8	930.97 ± 0.76	926.04 ± 0.76	921.12 ± 0.77	916.2 ± 0.77	911.28 ± 0.78	906.36 ± 0.76
x2 = 0.5846	949.87 ± 0.82	944.84 ± 0.78	939.81 ± 0.78	934.78 ± 0.78	929.76 ± 0.79	924.74 ± 0.79	919.72 ± 0.77
x2 = 0.6543	962.76 ± 0.83	957.63 ± 0.79	952.5 ± 0.79	947.38 ± 0.8	942.26 ± 0.8	937.14 ± 0.81	932.02 ± 0.78
x2 = 0.7249	976.61 ± 0.85	971.38 ± 0.8	966.15 ± 0.81	960.92 ± 0.81	955.69 ± 0.82	950.46 ± 0.82	945.23 ± 0.8
x2 = 0.7923	990.62 ± 0.87	985.27 ± 0.82	979.92 ± 0.83	974.58 ± 0.83	969.25 ± 0.83	963.92 ± 0.84	958.59 ± 0.81
x2 = 0.8623	1006.05 ± 0.88	1000.6 ± 0.84	995.15 ± 0.84	989.7 ± 0.85	984.25 ± 0.85	978.8 ± 0.86	973.35 ± 0.82
x2 = 0.9311	1022.14 ± 0.9	1016.58 ± 0.85	1011.03 ± 0.86	1005.48 ± 0.86	999.93 ± 0.87	994.38 ± 0.87	988.83 ± 0.83
